Results: article PMC11891828, “Olfactory Receptor Responses to Pure Odorants in Drosophila melanogaster” (The European Journal of Neuroscience, 2025)

Tests used:
Test in all cases: in vivo GCaMP6m calcium imaging of antennal neurons, GC-purified odorant
[1] = molecular target: T1, Or56a (Drosophila melanogaster, UniProt Q9V8Y7); settings: activation; dose series extended to 10^-12 dilution
T1 construct: native receptor in situ in antennal olfactory sensory neurons of living flies; Or56a-Gal4 drives UAS-GCaMP6m reporter; with Odorant receptor coreceptor
T1 sequence (Q9V8Y7 1-419): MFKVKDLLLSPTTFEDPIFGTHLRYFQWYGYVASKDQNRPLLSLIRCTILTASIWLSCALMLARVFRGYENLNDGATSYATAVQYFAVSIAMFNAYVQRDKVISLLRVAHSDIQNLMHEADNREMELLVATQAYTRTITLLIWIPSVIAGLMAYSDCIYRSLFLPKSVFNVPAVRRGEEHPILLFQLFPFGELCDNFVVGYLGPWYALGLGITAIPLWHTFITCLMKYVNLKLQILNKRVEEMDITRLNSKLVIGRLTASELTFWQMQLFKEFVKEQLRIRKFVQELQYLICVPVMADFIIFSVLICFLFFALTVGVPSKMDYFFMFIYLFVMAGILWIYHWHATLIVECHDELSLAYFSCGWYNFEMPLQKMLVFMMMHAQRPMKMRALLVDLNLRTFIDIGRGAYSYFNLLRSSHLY
T1 sequence (Q9VNB5 1-486 partner): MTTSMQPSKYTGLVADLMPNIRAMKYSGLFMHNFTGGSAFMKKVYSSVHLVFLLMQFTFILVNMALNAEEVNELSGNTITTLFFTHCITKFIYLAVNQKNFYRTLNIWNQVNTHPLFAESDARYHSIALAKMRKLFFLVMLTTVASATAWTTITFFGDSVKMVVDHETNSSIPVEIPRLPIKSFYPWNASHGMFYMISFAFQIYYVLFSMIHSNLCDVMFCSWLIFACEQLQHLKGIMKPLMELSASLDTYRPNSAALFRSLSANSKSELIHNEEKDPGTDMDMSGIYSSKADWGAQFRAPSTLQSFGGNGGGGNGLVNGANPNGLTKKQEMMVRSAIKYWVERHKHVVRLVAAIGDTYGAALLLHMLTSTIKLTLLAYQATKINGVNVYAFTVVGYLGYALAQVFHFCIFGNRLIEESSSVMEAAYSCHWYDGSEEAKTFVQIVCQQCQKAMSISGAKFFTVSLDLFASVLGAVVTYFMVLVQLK

[2] = molecular target: T2, Or10a (Drosophila melanogaster, UniProt Q9VYZ1); settings: activation; headspace of mineral-oil dilutions 10^-6, 10^-4, 10^-2
T2 construct: native receptor in situ in antennal olfactory sensory neurons of living flies; Or10a-Gal4 drives UAS-GCaMP6m reporter; with Odorant receptor coreceptor
T2 sequence (Q9VYZ1 1-406): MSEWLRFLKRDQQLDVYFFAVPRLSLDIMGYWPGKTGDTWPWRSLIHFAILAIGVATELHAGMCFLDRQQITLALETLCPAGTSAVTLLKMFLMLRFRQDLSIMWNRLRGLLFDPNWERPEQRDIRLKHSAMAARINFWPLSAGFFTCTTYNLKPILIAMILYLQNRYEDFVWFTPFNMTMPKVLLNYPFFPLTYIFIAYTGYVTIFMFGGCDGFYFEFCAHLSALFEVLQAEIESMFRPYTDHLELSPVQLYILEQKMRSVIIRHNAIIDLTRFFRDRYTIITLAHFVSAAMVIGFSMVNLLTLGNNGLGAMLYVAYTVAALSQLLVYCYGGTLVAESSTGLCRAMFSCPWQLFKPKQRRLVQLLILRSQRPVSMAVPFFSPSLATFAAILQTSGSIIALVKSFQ
T2 sequence (Q9VNB5 1-486 partner): T1 sequence (Q9VNB5 1-486 partner)

[3] = molecular target: T3, Or92a (Drosophila melanogaster, UniProt Q9VDM1); settings: activation, biphasic; polar GC column; n = 4
T3 construct: native receptor in situ in antennal olfactory sensory neurons of living flies; Or92a-Gal4 drives UAS-GCaMP6m reporter; with Odorant receptor coreceptor
T3 sequence (Q9VDM1 1-408): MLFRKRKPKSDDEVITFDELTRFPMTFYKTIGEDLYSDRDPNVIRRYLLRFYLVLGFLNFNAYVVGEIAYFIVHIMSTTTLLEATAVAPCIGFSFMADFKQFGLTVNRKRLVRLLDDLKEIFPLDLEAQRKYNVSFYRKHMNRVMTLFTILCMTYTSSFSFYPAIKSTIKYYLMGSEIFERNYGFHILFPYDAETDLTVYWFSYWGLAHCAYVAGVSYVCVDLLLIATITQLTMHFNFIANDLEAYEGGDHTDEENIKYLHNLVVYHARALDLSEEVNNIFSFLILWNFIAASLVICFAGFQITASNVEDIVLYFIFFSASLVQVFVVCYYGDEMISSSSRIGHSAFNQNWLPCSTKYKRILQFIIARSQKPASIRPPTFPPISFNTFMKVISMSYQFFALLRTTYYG
T3 sequence (Q9VNB5 1-486 partner): T1 sequence (Q9VNB5 1-486 partner)

[4] = molecular target: T4, Or47a (Drosophila melanogaster, UniProt P81921); settings: activation; headspace of mineral-oil dilutions
T4 construct: native receptor in situ in antennal olfactory sensory neurons of living flies; Or47a-Gal4 drives UAS-GCaMP6m reporter; with Odorant receptor coreceptor
T4 sequence (P81921 1-385): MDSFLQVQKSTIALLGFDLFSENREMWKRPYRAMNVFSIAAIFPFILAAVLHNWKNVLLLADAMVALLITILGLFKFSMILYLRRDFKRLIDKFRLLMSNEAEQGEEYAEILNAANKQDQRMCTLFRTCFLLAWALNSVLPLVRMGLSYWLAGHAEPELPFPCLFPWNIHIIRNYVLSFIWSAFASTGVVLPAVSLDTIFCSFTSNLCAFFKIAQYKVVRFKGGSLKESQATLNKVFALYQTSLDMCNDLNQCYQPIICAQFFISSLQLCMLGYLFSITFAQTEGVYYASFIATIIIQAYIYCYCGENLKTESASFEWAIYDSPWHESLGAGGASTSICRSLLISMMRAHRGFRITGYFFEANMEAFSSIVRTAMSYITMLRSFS
T4 sequence (Q9VNB5 1-486 partner): T1 sequence (Q9VNB5 1-486 partner)

[5] = molecular target: T3, Or92a; settings: activation, biphasic; polar GC column; n = 4; remark: listed apart in the source

Question: `CC1CCCC2(C)CCCCC12O` (racemic) [2MNL, (±)-geosmin] was tested. Which “in vivo GCaMP6m calcium imaging of antennal neurons, GC-purified odorant” value (“in vivo GCaMP6m calcium imaging” for short) [1] did it give?
Answer: We found strong responses to geosmin and none to any of the other substances

Question: `CCOC(=O)c1ccccc1` [2EBM, ethyl benzoate] was tested. Which “in vivo GCaMP6m calcium imaging” value [2] did it give?
Answer: good ligands were methyl benzoate and ethyl benzoate

Question: With `C[C@H](O)[C@@H](C)O` [MBDL, meso-2,3-Butanediol] as the compound, how does the “in vivo GCaMP6m calcium imaging” value [3] read?
Answer: the meso isomer, identical to 2R,3S) gave a weak response only

Question: Which “in vivo GCaMP6m calcium imaging” value [2] does the source give for `COC(=O)c1ccccc1` [MBZM, methyl benzoate] here?
Answer: good ligands were methyl benzoate and ethyl benzoate

Question: For `COC(=O)c1ccccc1O` [MSAM, methyl salicylate], which “in vivo GCaMP6m calcium imaging” value [2] is on record?
Answer: The best ligand was methyl salicylate

Question: `CCCCCOC(C)=O` [PACE, pentyl acetate] was tested. Which “in vivo GCaMP6m calcium imaging” value [4] did it give?
Answer: We found strong responses to pentyl acetate (significant to very low concentrations

Question: With `C[C@@H](O)[C@@H](C)O` [RBDL, (2R,3R)-(−)-2,3-Butanediol] as the compound, how does the calcium response [5] read?
Answer: ~ 15%

Question: `C[C@H](O)[C@H](C)O` [SBDL, (2S,3S)-(+)-2,3-Butanediol] was tested. Which calcium response [5] did it give?
Answer: > 40%
